Measured values published in ChEMBL document CHEMBL4665643 (Bioorg Med Chem Lett, 2019).

How the values were obtained:
[1] = target: Mitogen-activated protein kinase 1 (Homo sapiens) (UniProt P28482); assay: Inhibition of recombinant human GST-tagged full length ERK2 expressed in baculovirus expression system using Ser/Thr 03 as substrate at 0.1 uM incubated for 60 mins by Z'-Lyte assay relative to control
[2] = target: Ephrin type-A receptor 4 (Homo sapiens) (UniProt P54764); assay: Inhibition of recombinant human GST-tagged EPHA4 (616 to 887 residues) expressed in baculovirus expression system using Tyr 02 as substrate at 0.1 uM incubated for 60 mins by Z'-Lyte assay relative to control
[3] = target: Non-receptor tyrosine-protein kinase TYK2 (Homo sapiens) (UniProt P29597); assay: Inhibition of recombinant human N-terminal GST-tagged TYK2 (833 to 1187 residues) expressed in baculovirus expression system using Tyr 03 as substrate at 0.1 uM incubated for 60 mins by Z'-Lyte assay relative to control
[4] = target: T1, Mitogen-activated protein kinase kinase kinase 5 (Homo sapiens) (UniProt Q99683); assay: Inhibition of tracer 236 binding to recombinant human GST-tagged full length ASK1 expressed in baculovirus expression system at 0.1 uM incubated for 60 mins by Lanthascreen assay relative to control
T1 sequence (whole entry): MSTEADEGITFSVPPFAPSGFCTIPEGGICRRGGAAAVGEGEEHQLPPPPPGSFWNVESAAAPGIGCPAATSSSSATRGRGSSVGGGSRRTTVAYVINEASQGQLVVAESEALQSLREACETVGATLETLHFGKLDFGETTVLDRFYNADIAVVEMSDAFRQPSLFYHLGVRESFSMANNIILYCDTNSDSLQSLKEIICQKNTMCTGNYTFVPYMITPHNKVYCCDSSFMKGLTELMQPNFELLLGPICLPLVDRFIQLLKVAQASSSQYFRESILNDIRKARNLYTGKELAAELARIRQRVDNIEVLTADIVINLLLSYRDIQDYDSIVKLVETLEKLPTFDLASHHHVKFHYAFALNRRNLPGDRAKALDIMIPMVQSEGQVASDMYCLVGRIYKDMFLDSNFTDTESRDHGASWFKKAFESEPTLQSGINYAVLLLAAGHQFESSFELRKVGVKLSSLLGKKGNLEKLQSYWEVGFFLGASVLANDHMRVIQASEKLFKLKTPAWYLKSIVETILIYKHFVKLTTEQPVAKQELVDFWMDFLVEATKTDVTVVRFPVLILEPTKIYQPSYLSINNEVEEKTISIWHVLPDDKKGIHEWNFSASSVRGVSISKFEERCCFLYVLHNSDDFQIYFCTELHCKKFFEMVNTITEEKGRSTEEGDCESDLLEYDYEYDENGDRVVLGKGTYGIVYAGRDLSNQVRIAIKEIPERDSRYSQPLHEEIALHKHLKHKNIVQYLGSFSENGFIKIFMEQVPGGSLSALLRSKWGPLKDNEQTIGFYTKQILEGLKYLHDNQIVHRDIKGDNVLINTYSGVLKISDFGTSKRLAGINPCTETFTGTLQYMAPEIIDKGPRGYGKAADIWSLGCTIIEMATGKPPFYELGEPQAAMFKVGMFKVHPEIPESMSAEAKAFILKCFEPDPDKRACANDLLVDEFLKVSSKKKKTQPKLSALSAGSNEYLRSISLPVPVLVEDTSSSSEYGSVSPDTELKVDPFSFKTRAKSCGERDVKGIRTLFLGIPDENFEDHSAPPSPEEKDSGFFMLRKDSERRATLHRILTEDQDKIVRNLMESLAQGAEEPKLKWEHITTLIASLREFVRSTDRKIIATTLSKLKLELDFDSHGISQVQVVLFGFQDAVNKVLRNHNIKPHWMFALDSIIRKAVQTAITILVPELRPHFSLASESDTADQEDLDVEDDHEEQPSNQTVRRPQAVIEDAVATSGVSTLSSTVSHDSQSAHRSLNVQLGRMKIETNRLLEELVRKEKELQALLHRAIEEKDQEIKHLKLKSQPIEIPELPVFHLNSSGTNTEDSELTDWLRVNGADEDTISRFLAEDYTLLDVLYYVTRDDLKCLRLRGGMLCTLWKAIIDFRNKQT

[5] = target: Tyrosine-protein kinase JAK1 (Homo sapiens, UniProt P23458)
[6] = target: Mitogen-activated protein kinase 8 (Homo sapiens) (UniProt P45983); assay: Inhibition of recombinant human His-tagged full length JNK1alpha1 expressed in baculovirus expression system using Ser/Thr 04 as substrate at 0.1 uM incubated for 60 mins by Z'-lyte assay relative to control
[7] = target: Fibroblast growth factor receptor 4 (Homo sapiens) (UniProt P22455); assay: Inhibition of recombinant human His-tagged FGFR4 ([…]) expressed in baculovirus expression system using Tyr 04 as substrate at 0.1 uM incubated for 60 mins by Z'-Lyte assay relative to control
[8] = target: Tyrosine-protein kinase Fyn (Homo sapiens) (UniProt P06241); assay: Inhibition of recombinant human C-terminal His-tagged full length FYN expressed in baculovirus expression system using Tyr 02 as substrate at 0.1 uM incubated for 60 mins by Z'-Lyte assay relative to control
[9] = target: Casein kinase I isoform alpha (Homo sapiens) (UniProt P48729); assay: Inhibition of recombinant human GST-tagged full length CK1alpha1 expressed in baculovirus expression system using Ser/Thr 11 as substrate at 0.1 uM incubated for 60 mins by Z'-Lyte assay relative to control
[10] = target: T2, Beta-adrenergic receptor kinase 1 (Homo sapiens) (UniProt P25098); assay: Inhibition of recombinant human His-tagged full length GRK2 expressed in baculovirus expression system using Ser/Thr 16 as substrate at 0.1 uM incubated for 60 mins by Z'-Lyte assay relative to control
T2 sequence (whole entry): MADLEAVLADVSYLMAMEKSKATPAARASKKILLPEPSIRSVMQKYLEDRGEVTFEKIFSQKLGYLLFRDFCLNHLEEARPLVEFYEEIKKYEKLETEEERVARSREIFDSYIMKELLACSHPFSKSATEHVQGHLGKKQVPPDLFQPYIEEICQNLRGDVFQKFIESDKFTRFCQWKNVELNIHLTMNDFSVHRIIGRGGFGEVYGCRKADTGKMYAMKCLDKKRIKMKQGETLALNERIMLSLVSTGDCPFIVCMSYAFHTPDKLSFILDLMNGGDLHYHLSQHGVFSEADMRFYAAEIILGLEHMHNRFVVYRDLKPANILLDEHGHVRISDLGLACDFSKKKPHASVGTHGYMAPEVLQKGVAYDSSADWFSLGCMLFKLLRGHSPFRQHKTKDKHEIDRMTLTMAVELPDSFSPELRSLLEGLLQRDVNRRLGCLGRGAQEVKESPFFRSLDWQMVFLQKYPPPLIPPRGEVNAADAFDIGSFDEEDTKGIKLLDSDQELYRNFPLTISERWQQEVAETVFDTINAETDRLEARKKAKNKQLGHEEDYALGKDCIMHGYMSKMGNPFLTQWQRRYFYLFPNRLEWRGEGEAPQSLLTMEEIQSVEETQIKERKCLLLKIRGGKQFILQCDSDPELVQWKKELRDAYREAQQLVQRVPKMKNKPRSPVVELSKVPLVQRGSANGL

Mitogen-activated protein kinase 1 (Homo sapiens), sequence (P28482 whole entry, the tested form may be a part): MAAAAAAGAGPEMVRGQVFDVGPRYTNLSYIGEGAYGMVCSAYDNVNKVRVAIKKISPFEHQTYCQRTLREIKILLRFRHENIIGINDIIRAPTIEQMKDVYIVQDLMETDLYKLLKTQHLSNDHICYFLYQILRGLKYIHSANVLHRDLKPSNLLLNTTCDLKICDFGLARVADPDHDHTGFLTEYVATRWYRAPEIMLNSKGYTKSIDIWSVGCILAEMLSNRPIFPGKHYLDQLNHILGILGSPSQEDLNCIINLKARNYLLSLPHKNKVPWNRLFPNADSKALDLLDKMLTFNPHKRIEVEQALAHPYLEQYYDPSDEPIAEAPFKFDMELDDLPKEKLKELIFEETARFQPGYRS
Ephrin type-A receptor 4 (Homo sapiens), sequence (P54764 whole entry, the tested form may be a part): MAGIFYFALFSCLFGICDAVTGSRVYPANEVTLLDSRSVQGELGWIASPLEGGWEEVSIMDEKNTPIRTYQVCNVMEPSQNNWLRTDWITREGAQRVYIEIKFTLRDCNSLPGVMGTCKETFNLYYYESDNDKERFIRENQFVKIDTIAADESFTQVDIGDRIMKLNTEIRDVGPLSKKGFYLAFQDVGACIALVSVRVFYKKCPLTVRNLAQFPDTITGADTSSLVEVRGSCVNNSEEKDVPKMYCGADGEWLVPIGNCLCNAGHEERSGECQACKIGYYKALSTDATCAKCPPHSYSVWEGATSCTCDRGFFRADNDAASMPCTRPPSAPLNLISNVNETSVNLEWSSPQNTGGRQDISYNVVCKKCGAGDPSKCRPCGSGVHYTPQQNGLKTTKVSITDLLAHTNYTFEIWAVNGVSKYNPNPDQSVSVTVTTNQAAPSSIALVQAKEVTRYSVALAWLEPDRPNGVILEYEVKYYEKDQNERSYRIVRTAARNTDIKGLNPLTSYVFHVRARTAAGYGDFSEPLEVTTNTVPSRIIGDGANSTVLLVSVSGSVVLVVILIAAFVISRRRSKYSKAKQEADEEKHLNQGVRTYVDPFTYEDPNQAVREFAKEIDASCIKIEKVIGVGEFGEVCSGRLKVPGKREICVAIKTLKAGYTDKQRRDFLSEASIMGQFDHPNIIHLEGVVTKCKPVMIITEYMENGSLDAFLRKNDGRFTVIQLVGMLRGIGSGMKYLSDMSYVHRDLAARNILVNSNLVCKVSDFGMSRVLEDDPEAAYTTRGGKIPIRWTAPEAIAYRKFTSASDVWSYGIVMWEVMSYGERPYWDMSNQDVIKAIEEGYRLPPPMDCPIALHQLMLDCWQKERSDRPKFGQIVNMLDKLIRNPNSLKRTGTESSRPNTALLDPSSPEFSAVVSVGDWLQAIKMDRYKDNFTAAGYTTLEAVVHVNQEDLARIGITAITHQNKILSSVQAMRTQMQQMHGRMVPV
Tyrosine-protein kinase JAK1, sequence (P23458 whole entry): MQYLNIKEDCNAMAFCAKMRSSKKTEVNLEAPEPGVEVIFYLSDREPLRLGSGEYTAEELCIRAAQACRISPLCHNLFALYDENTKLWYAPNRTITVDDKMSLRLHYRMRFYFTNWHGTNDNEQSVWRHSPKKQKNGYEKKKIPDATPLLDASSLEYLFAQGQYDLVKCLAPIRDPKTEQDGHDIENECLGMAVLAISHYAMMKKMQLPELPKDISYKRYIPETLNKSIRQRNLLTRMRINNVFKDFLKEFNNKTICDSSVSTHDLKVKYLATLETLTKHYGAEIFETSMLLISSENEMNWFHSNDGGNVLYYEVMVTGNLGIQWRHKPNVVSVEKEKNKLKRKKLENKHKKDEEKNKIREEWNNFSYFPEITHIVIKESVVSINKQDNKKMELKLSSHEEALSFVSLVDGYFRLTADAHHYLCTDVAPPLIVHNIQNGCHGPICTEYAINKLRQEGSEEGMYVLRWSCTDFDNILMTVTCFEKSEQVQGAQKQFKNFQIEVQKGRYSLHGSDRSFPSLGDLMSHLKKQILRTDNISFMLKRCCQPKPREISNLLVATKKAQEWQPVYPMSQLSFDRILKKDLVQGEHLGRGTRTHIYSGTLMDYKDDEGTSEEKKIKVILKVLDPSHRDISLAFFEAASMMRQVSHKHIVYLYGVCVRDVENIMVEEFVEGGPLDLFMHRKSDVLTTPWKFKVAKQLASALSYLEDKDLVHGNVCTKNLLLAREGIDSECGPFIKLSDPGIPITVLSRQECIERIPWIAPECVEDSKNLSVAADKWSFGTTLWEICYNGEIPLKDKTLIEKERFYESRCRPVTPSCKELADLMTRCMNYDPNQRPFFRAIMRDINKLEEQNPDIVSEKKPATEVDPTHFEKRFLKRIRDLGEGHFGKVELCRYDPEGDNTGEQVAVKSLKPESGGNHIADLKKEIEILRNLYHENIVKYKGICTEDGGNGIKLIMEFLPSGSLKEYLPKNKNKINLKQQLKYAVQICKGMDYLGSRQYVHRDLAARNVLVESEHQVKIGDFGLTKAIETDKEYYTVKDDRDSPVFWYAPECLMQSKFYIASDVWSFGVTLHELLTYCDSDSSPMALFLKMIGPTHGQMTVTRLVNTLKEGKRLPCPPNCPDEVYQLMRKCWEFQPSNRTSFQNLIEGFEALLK
Mitogen-activated protein kinase 8 (Homo sapiens), sequence (P45983 whole entry): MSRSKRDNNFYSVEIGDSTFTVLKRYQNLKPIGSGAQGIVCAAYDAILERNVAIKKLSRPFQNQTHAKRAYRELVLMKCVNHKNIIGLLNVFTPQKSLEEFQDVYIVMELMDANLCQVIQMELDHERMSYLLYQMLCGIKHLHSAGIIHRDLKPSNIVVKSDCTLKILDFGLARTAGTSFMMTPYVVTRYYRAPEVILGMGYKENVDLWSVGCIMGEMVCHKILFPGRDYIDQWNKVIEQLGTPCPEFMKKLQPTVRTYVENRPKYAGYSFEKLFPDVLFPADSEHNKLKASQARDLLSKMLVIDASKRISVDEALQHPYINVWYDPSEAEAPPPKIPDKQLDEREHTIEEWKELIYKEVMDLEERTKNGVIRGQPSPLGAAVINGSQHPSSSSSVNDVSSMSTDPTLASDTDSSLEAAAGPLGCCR
Casein kinase I isoform alpha (Homo sapiens), sequence (P48729 2-337 limits assumed): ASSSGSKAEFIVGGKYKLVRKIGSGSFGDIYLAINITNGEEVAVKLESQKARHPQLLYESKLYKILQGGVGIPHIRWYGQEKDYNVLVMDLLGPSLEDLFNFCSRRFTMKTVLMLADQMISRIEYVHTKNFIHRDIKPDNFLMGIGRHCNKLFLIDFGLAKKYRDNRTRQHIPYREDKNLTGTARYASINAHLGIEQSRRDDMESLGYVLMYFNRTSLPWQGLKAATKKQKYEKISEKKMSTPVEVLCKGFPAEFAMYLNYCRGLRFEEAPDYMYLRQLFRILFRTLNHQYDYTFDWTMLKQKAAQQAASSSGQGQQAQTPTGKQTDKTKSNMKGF
Fibroblast growth factor receptor 4 (Homo sapiens), sequence (P22455 22-802 limits assumed): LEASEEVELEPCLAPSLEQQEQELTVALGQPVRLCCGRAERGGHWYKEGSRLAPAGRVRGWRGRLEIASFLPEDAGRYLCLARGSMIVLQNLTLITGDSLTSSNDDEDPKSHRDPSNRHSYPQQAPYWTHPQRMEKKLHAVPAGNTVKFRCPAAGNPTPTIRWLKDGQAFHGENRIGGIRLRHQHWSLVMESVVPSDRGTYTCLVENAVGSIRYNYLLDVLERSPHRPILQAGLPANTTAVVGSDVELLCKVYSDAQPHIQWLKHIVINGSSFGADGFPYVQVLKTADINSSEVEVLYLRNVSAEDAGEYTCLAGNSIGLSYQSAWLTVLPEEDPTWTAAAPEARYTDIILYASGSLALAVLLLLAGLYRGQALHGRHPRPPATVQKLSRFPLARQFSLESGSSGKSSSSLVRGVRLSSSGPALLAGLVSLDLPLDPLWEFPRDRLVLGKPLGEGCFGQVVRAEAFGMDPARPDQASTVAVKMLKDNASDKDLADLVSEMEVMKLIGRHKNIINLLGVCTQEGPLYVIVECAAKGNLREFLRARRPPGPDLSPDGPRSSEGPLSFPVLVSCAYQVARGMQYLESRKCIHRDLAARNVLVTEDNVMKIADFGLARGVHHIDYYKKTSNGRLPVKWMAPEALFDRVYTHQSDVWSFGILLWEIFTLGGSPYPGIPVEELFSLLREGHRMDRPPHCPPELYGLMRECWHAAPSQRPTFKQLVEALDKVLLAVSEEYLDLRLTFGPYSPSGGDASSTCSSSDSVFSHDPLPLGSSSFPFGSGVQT
Tyrosine-protein kinase Fyn (Homo sapiens), sequence (P06241 2-537 limits assumed): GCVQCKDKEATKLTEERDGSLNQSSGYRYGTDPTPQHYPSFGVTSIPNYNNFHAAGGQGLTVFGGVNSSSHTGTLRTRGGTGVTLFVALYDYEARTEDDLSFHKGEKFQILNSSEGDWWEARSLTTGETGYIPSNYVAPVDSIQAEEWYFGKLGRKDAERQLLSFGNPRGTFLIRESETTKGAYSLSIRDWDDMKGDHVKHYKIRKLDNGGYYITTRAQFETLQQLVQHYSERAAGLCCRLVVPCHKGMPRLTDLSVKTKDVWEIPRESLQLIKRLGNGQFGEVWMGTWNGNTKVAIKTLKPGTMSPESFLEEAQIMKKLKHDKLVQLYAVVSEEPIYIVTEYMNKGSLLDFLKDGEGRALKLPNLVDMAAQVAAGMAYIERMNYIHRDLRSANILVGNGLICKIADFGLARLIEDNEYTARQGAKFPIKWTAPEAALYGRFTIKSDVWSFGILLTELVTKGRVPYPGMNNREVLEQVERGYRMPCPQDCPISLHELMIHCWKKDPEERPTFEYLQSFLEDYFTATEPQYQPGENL

SMILES | inhibition [1] [%] | inhibition [2] [%] | inhibition [3] [%] | inhibition [4] [%] | IC50 [5] [nM] | inhibition [6] [%] | inhibition [7] [%] | inhibition [8] [%] | inhibition [9] [%] | inhibition [10] [%]
O=C(Nc1c[nH]nc1-c1cc(Cl)ccc1OC(F)F)c1cnn2cccnc12 | 1 | -4 | 100 | 4 | 1.2 | 11 | -1 | 95 | 10 | 3
O=C(Nc1c[nH]nc1-c1cc2ccccc2cc1OC(F)F)c1cnn2cccnc12 | -4 | 3 | 95 | -2 | 2.2 | -5 | 4 | 78 | -1 | 0
Cn1cc(NC(=O)c2cnn3cccnc23)c(-c2cc(Cl)ccc2OC(F)F)n1 | 4 | 4 | 98 | 2 | 1.7 | 11 | 5 | 89 | 6 | 8
